Our source for the IC50 values is patent US20240025883A1, “PYRIMIDIN-2-YL SULFONAMIDE DERIVATIVES” (Hoffmann-La Roche Inc., priority 2021, published 2024).

pIC50: −log10 of the molar value.

The pIC50 is the IC50 on a negative log10 scale, so that one unit is a factor of ten. A higher pIC50 goes with a small IC50.

Sequence of human GPR17 short isoform (Q13304 29-367): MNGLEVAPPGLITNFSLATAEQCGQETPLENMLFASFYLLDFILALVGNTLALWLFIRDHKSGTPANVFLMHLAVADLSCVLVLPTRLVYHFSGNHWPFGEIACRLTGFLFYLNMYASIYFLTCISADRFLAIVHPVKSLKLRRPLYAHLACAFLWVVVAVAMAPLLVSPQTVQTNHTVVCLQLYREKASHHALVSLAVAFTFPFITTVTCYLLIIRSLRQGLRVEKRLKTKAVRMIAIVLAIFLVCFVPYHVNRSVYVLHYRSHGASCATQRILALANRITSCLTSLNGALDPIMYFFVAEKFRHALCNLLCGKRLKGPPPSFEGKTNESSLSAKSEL

The target of the assay is human GPR17 short isoform (Homo sapiens (Human), UniProt Q13304). Kind of assay: GPR17 cAMP assay (hGPR17 cAMP, antagonist mode against EC80 of MDL29,951). The class given is cell-based. The following applies: CHO-K1 cells stably expressing human GPR17 short isoform; EC80 of agonist MDL29,951; forskolin 15 μM. The essentials:
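cAMP was read by competitive TR-FRET after a 30 min room-temperature stimulation: antagonists plus EC80 MDL29,951 and 0.5 mM IBMX, followed 5 min later by 15 μM forskolin. Cells were CHO-K1 with stable human GPR17 short isoform in HBSS/HEPES/BSA, pH 7.4; percent activity versus reference antagonist fitted sigmoidally.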
The compound `COc1nc(NS(=O)(=O)c2c[nH]c3cc(Cl)ccc23)nc(OC)c1CC(F)CF` (stereo not drawn) [Example 264, 6-chloro-N-[5-(2,3-difluoropropyl)-4,6-dimethoxy-pyrimidin-2-yl]-1H-indole-3-sulfonamide] had a pIC50 of 7.64.

`COc1nc(NS(=O)(=O)c2c[nH]c3cc(Cl)ccc23)ncc1CC(C)(F)F` [Example 260, 6-chloro-N-[5-(2,2-difluoropropyl)-4-methoxy-pyrimidin-2-yl]-1H-indole-3-sulfonamide] gave a pIC50 of 6.31.

With `CCc1nc(NS(=O)(=O)c2c[nH]c3cc(Cl)ccc23)nc(OC)c1C` [Example 137, 6-chloro-N-(4-ethyl-6-methoxy-5-methyl-pyrimidin-2-yl)-1H-indole-3-sulfonamide], the pIC50 is 6.35. For `COc1nc(NS(=O)(=O)c2c[nH]c3c(F)c(F)ccc23)ncc1CC(F)F` [Example 164, N-[5-(2,2-difluoroethyl)-4-methoxy-pyrimidin-2-yl]-6,7-difluoro-1H-indole-3-sulfonamide] the value was 6.90; for `COc1nc(NS(=O)(=O)c2c[nH]c3cc(Cl)ccc23)ncc1OC(C)(F)F` [Example 42, 6-chloro-N-[5-(1,1-difluoroethoxy)-4-methoxy-pyrimidin-2-yl]-1H-indole-3-sulfonamide], 6.71. As for `COc1nc(NS(=O)(=O)c2c[nH]c3c(F)c(Br)ccc23)ncc1OCCF` [Example 213, 6-bromo-7-fluoro-N-[5-(2-fluoroethoxy)-4-methoxy-pyrimidin-2-yl]-1h-indole-3-sulfonamide], the pIC50 is 7.47. The compound `COc1nc(NS(=O)(=O)c2c[nH]c3nc(Cl)ccc23)nc(OC)c1OCCF` [Example 221, 6-chloro-N-[5-(2-fluoroethoxy)-4,6-dimethoxy-pyrimidin-2-yl]-1H-pyrrolo[2,3-b]pyridine-3-sulfonamide] gave a pIC50 of 7.19. `COc1nc(NS(=O)(=O)c2c[nH]c3cc(Cl)ccc23)ncc1CCCF` [Example 21, 6-chloro-N-[5-(3-fluoropropyl)-4-methoxy-pyrimidin-2-yl]-1H-indole-3-sulfonamide] showed a pIC50 of 7.92. Turning to `COc1nc(NS(=O)(=O)c2c[nH]c3c(C4CC4)c(Cl)ccc23)ncc1CC(F)F` [Example 233, 6-chloro-7-cyclopropyl-N-[5-(2,2-difluoroethyl)-4-methoxy-pyrimidin-2-yl]-1H-indole-3-sulfonamide], the pIC50 was 6.69. For `COc1nc(NS(=O)(=O)c2c[nH]c3c([S+](C)[O-])c(Cl)ccc23)nc(OC)c1OCCF` (stereo not drawn) [Example 278, 6-chloro-N-[5-(2-fluoroethoxy)-4,6-dimethoxy-pyrimidin-2-yl]-7-methylsulfinyl-1h-indole-3-sulfonamide] the value was 6.64; for `COc1nc(NS(=O)(=O)c2csc3nc(Br)ccc23)nc(OC)c1CC(F)F` [Example 150, 6-bromo-N-[5-(2,2-difluoroethyl)-4,6-dimethoxy-pyrimidin-2-yl]thieno[2,3-b]pyridine-3-sulfonamide], 7.41; for `COc1nc(NS(=O)(=O)c2c[nH]c3c(OCC#N)c(Cl)ccc23)nc(OC)c1CC(F)F` [Example 294, 6-Chloro-7-(Cyanomethoxy)-N-[5-(2,2-Difluoroethyl)-4,6-Dimethoxy-Pyrimidin-2-Yl]-1H-Indole-3-Sulfonamide], 7.62. Compound `COc1nc(NS(=O)(=O)c2c[nH]c3cc(Cl)ccc23)ncc1CCC(F)(F)F` [Example 178, 6-chloro-N-[4-methoxy-5-(3,3,3-trifluoropropyl)pyrimidin-2-yl]-1H-indole-3-sulfonamide] gave a pIC50 of 6.97. For `COc1nc(NS(=O)(=O)c2c[nH]c3c2ccc2cccnc23)nc(OC)c1OCC(F)F` [Example 168, N-[5-(2,2-difluoroethoxy)-4,6-dimethoxy-pyrimidin-2-yl]-1H-pyrrolo[3,2-h]quinoline-3-sulfonamide] the value was 7.59.

`COc1nc(NS(=O)(=O)c2c[nH]c3c(N4CCOCC4)c(Cl)ccc23)nc(OC)c1CC(F)F` [Example 133, 6-chloro-N-[5-(2,2-difluoroethyl)-4,6-dimethoxy-pyrimidin-2-yl]-7-morpholino-1H-indole-3-sulfonamide] had a pIC50 of 7.12. Under `COc1nc(NS(=O)(=O)c2c[nH]c3c(F)c(Cl)ccc23)nc(OC)c1OCC(F)F` [Example 208, 6-chloro-N-[5-(2,2-difluoroethoxy)-4,6-dimethoxy-pyrimidin-2-yl]-7-fluoro-1H-indole-3-sulfonamide] stands 7.60.

`COc1nc(NS(=O)(=O)c2c[nH]c3cc(Cl)ccc23)nc(C(C)(F)F)c1Br` [Example 82, N-[5-bromo-4-(1,1-difluoroethyl)-6-methoxy-pyrimidin-2-yl]-6-chloro-1H-indole-3-sulfonamide] had a negative-log IC50 (pIC50) of 6.12. For `COc1nc(NS(=O)(=O)c2c[nH]c3c([S+](C)[O-])c(Cl)ccc23)ncc1CC(F)F` (stereo not drawn) [Example 276, 6-chloro-N-[5-(2,2-difluoroethyl)-4-methoxy-pyrimidin-2-yl]-7-methylsulfinyl-1H-indole-3-sulfonamide], the pIC50 is 6.87. Compound `COCc1nc(NS(=O)(=O)c2c[nH]c3cc(Cl)ccc23)nc(OC)c1Br` [Example 81, N-[5-bromo-4-methoxy-6-(methoxymethyl)pyrimidin-2-yl]-6-chloro-1H-indole-3-sulfonamide] had a pIC50 of 5.24.

Compound `COc1nc(NS(=O)(=O)c2c[nH]c3cc(Cl)c(F)cc23)ncc1CC(F)F` [Example 185, 6-chloro-N-[5-(2,2-difluoroethyl)-4-methoxy-pyrimidin-2-yl]-5-fluoro-1H-indole-3-sulfonamide] showed a pIC50 of 7.05. Compound `COc1nc(NS(=O)(=O)c2c[nH]c3nc(Br)ccc23)ncc1OCC(F)F` [Example 161, 6-bromo-N-[5-(2,2-difluoroethoxy)-4-methoxy-pyrimidin-2-yl]-1H-pyrrolo[2,3-b]pyridine-3-sulfonamide] had a pIC50 of 7.14. Under `COc1nc(NS(=O)(=O)c2c[nH]c3c(F)c(Cl)ccc23)ncc1CC(F)F` [Example 124, 6-chloro-N-[5-(2,2-difluoroethyl)-4-methoxy-pyrimidin-2-yl]-7-fluoro-1H-indole-3-sulfonamide] stands 7.47; under `COc1nc(NS(=O)(=O)c2c[nH]c3cc(Cl)ccc23)ncc1CCC1COC1` [Example 181, 6-chloro-N-[4-methoxy-5-[2-(oxetan-3-yl)ethyl]pyrimidin-2-yl]-1H-indole-3-sulfonamide], 4.77; under `COc1nc(NS(=O)(=O)c2c[nH]c3c(F)c(Br)ccc23)nc(OC)c1OC(F)F` [Example 241, 6-bromo-N-[5-(difluoromethoxy)-4,6-dimethoxy-pyrimidin-2-yl]-7-fluoro-1H-indole-3-sulfonamide], 7.68. `COc1nc(NS(=O)(=O)c2c[nH]c3c(Br)c(Cl)ccc23)ncc1OCCF` [Example 141, 7-bromo-6-chloro-N-[5-(2-fluoroethoxy)-4-methoxy-pyrimidin-2-yl]-1H-indole-3-sulfonamide] had a pIC50 of 7.85. For `COCCOc1nc(NS(=O)(=O)c2c[nH]c3cc(Cl)ccc23)nc(OC)c1Br` [Example 70, N-[5-bromo-4-methoxy-6-(2-methoxyethoxy)pyrimidin-2-yl]-6-chloro-1H-indole-3-sulfonamide] the value was 5.56; for `COc1nc(NS(=O)(=O)c2c[nH]c3c(F)c(C(F)F)ccc23)nc(OC)c1CC(F)F` [Example 251, N-[5-(2,2-difluoroethyl)-4,6-dimethoxy-pyrimidin-2-yl]-6-(difluoromethyl)-7-fluoro-1H-indole-3-sulfonamide], 7.66. In turn, `COc1nc(NS(=O)(=O)c2c[nH]c3c(C#N)c(Cl)ccc23)ncc1CC(F)F` [Example 223, 6-chloro-7-cyano-N-[5-(2,2-difluoroethyl)-4-methoxy-pyrimidin-2-yl]-1H-indole-3-sulfonamide] showed a pIC50 of 7.40. Under `COc1nc(NS(=O)(=O)c2c[nH]c3cc(Cl)ccc23)ncc1C#CC1COC1` [Example 180, 6-chloro-N-[4-methoxy-5-[2-(oxetan-3-yl)ethynyl]pyrimidin-2-yl]-1H-indole-3-sulfonamide] stands 6.52; under `COc1nc(NS(=O)(=O)c2c[nH]c3cc(Br)ccc23)nc(OC)c1CC(F)F` [Example 245, 6-bromo-N-[5-(2,2-difluoroethyl)-4,6-dimethoxy-pyrimidin-2-yl]-1H-indole-3-sulfonamide], 7.57. With `COc1nc(NS(=O)(=O)c2c[nH]c3c2ccc2sncc23)ncc1CC(F)F` [Example 282, N-[5-(2,2-Difluoroethyl)-4-Methoxy-Pyrimidin-2-Yl]-1H-Pyrrolo[2,3-e][1,2]Benzothiazole-3-Sulfonamide], the pIC50 was 6.96.

In the case of `COc1nc(NS(=O)(=O)c2c[nH]c3c(F)c(C(F)F)ccc23)nc(OC)c1OCC(F)F` [Example 250, N-[5-(2,2-difluoroethoxy)-4,6-dimethoxy-pyrimidin-2-yl]-6-(difluoromethyl)-7-fluoro-1H-indole-3-sulfonamide], the pIC50 was 7.46.

`COc1nc(NS(=O)(=O)c2c[nH]c3cc(Cl)ccc23)ncc1CC1CC1` [Example 46, 6-chloro-N-[5-(cyclopropylmethyl)-4-methoxy-pyrimidin-2-yl]-1H-indole-3-sulfonamide] showed a pIC50 of 6.04. Regarding `COc1nc(NS(=O)(=O)c2c[nH]c3cc(Br)ccc23)ncc1OC(F)F` [Example 189, 6-bromo-N-[5-(difluoromethoxy)-4-methoxy-pyrimidin-2-yl]-1H-indole-3-sulfonamide], the negative logarithm of the IC50 (pIC50) is 6.78. Against the preceding compound, the pIC50 is 0.74 log units higher. For `COc1nc(NS(=O)(=O)c2c[nH]c3cc(Cl)ccc23)nc(OC)c1CCC#N` [Example 68, 6-chloro-N-[5-(2-cyanoethyl)-4,6-dimethoxy-pyrimidin-2-yl]-1H-indole-3-sulfonamide] the value was 8.05; for `COc1cnc(NS(=O)(=O)c2c[nH]c3cc(Cl)ccc23)nc1Cl` [Example 173, 6-chloro-N-(4-chloro-5-methoxy-pyrimidin-2-yl)-1H-indole-3-sulfonamide], 6.06.
